From publication PMC5784442 (ACS catalysis, 2017)

Columns and labels:
‘TesA [1] = target: T1, ‘TesA (Escherichia coli, UniProt P0ADA1); experiment: X-ray crystal structure, […] A; format: binding; conditions: 3 mM octanoic acid, Homo-PIPES pH 5.0
T1 sequence (P0ADA1 27-208): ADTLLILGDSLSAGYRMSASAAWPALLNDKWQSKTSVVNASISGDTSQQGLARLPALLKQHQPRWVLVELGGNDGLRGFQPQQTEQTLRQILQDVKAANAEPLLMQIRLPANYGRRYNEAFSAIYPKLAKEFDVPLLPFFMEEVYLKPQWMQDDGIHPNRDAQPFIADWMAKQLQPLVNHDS

‘TesA [2] = target: T1, ‘TesA; experiment: DTNB assay at […] nm, free CoA release; format: biochemical; conditions: 0-120 µM substrate, 40 nM enzyme

SMILES	X-ray crystal structure, 1.65 A (‘TesA [1])	DTNB assay at 412 nm, free CoA release (‘TesA [2])
CCCCCCCC(=O)O [C8, octanoic acid]	Crystal structures of WT ‘TesA and R3.M4 bound to octanoic acid were solved	
CCCCCCCC(=O)SCCNC(=O)CCNC(=O)[C@H](O)C(C)(C)COP(=O)(O)OP(=O)(O)OC[C@H]1O[C@@H](n2cnc3c(N)ncnc32)[C@H](O)[C@@H]1OP(=O)(O)O [C8-CoA, octanoyl-CoA]		‘TesA WT and R3.M4 activity on C8-CoA
CCCCCCCCCCCC(=O)SCCNC(=O)CCNC(=O)[C@H](O)C(C)(C)COP(=O)(O)OP(=O)(O)OC[C@H]1O[C@@H](n2cnc3c(N)ncnc32)[C@H](O)[C@@H]1OP(=O)(O)O [C12-CoA, dodecanoyl-CoA]		highest in vitro ‘TesA WT activity (Figure 7A) was observed for C12-CoA, C14-CoA and C16-CoA
